Here are results for 4 compounds from article PMC2646255 (Journal of medicinal chemistry, 2008).

Data set [1] deals with P-gp. As to conditions: P-gp knockout mouse brain; cited from earlier work.
For data set [2], the system named is P-gp. As to conditions: monkey, DCPQ 8 mg/kg or 16 mg/kg i.v. before [^11C]3.
The conditions of data set [3]: monkey, DCPQ 8 mg/kg i.v.
The format of data set [4] is in vivo, rhesus monkeys (Macaca mulatta). As to conditions: 1 mg/kg i.v. at 30 min after [^11C]3, DCPQ-treated monkeys.
Data set [5] relates to 5-HT2A receptor. The experiment in a line: NIMH-PDSP binding screen. As to conditions: 10 μM.
Data set [6] has as its system κ-opiate receptor. As to the kind of experiment: NIMH-PDSP binding screen. As to conditions: 10 μM.
Data set [7] has as its target T1, σ2 receptor (Rattus norvegicus, UniProt Q5U3Y7).
T1 sequence (Q5U3Y7 1-176): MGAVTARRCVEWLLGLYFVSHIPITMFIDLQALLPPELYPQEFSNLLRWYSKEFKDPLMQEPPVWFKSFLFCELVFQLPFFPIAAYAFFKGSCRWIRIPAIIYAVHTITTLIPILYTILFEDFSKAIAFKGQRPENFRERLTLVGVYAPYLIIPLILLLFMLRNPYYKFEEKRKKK
The experiment in a line: NIMH-PDSP binding screen.

Data set [8] deals with σ1 receptor (Cavia porcellus, UniProt Q60492). The experiment in a line: NIMH-PDSP binding screen. As to conditions: read-out: inhibition of binding.
Sequence of σ1 receptor (Q60492 whole entry): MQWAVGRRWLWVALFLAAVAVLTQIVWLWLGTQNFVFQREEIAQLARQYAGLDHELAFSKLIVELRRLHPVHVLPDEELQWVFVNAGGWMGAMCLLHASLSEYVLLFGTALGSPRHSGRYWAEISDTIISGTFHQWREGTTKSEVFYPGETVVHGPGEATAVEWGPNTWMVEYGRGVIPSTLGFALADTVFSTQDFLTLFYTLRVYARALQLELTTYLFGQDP
For data set [9], the system named is 5-HT2C receptor. The experiment in a line: NIMH-PDSP binding screen. As to conditions: 10 μM.

SMILES strings stand for the structures. Where only a bound is given, the exact number is not on record here.

Regarding `CN([11CH3])C(=O)C(CCN1CCC(O)(c2ccc(Cl)cc2)CC1)(c1ccccc1)c1ccccc1` [[^11C]loperamide], the “unchanged radiotracer as share of radioactivity in brain” value in data set [1] is reported as ~ 50%.
Turning to `Cl.Cl.Cl.O[C@@H](COc1cccc2ncccc12)CN1CCN(C2c3ccccc3C3C(c4ccccc42)C3(Cl)Cl)CC1` (stereo partly drawn) [DCPQ, (2R)-anti-5-{3-[4-(10,11-dichloromethanodibenzo-suber-5-yl)piperazin-1-yl]-2-hydroxypropoxy}quinoline trihydrochloride, reference compound], the “effect on uptake of radioactivity into pituitary” value in data set [2] is recorded as “no effect”. For the same compound, the “effect on rate at which each radiometabolite emerged in plasma” value in data set [3] was “little effect”.
Take `CN(C)C(=O)C(CCN1CCC(O)(c2ccc(Cl)cc2)CC1)(c1ccccc1)c1ccccc1` [loperamide, reference compound]: the “effect on washout of radioactivity from brain” value in data set [4] is listed as “no discernible effect”.
A word on the Ki: it is the equilibrium dissociation constant of an inhibitor or competing ligand from its target. Usually inhibition stands for the percentage by which the read-out fell short of the control. In the case of `CNC(=O)C(CCN1CCC(O)(c2ccc(Cl)cc2)CC1)(c1ccccc1)c1ccccc1` [Compound 3, 4-(4-(4-Chlorophenyl)-4-hydroxypiperidin-1-yl)-2,2-diphenyl-N-methyl-butanamide], the inhibition of binding in data set [5], in data set [6] and in data set [9] was below 50% each time. The Ki in [7] (Ki, σ2) was below 10 nM. In addition, the inhibition at 10 µM in data set [7] (read-out: inhibition of binding) and in [8] was above 50% in each case. Moreover, in data set [4], the “effect on washout of radioactivity from brain” value was “no discernible effect”.
